Measurements as given in EP0332156B1, “Cephem compounds and processes for preparation thereof” (FUJISAWA PHARMACEUTICAL CO., LTD., priority 1988, dated 1989).

System: E. coli 31
Test: In vitro antibacterial activity (MIC), two-fold agar-plate dilution method
Assay type: cell-based
Conditions: Escherichia coli; test strain E. coli 31; heart infusion agar; incubation at 37°C for 20 hours; inoculum 10^8 viable cells per ml
Description: In vitro antibacterial activity was determined by the two-fold agar-plate dilution method as described below. One loopful of an overnight culture of each test strain in Trypticase-soy broth (10^8 viable cells per ml) was streaked on heart infusion agar (HI-agar) containing graded concentrations of representative test compound, and the minimal inhibitory concentration (MIC) was expressed in terms of µg/mℓ after incubation at 37°C for 20 hours.

CON=C(C(=O)NC1C(=O)N2C(C(=O)[O-])=C(C[n+]3ccc4n3CCN4)CSC12)c1csc(N)n1 (stereo not shown) [(1)]
MIC: ≤ 0.025 µg/mL
